According to patent US6866861B1, “Method and composition for enhancing milk component concentrations” (Land O'Lakes, Inc., priority 1999, dated 2005):

Tested on: cows
Test: Abomasal infusion of glycerol on an on-off-on schedule, total solids in milk (Example 6, FIG. 3)
Assay type: in vivo
Settings: 150 g/cow/day abomasal weeks 1-3 and 7-9, water weeks 4-6; average of two cows
Description: FIG. 3 is a graph of the concentration of total solids in milk versus time when abomasally infusing glycerol into cattle in accordance with the method of the present invention. To determine the weight percent total solids, wet basis, in a sample, the actual weight of total solids is determined by analyzing the sample in accordance with Method #925.23 (33.2.09) of Official Methods of Analysis, Association of Official Analytical Chemists (AOAC) (16th Ed., 1995). The weight percent total solids, wet basis, is then calculated by dividing the actual weight of total solids by the actual weight of the sample. In Example 6, two cows were abomasally infused at the rate of 150 grams per cow per day of glycerol on an on-off-on schedule to determine whether there were any benefits to intermittently providing glycerol to the abomasum of the cattle. For each cow, glycerol was abomasally infused during weeks 1-3 and weeks 7-9, while water, and not glycerol, was abomasally infused into each cow during weeks 4-6. The results of this test are graphically depicted in FIG. 3 as the concentration, expressed as weight percent, of total solids in the milk produced by the cattle during the test period.

OCC(O)CO [glycerol]
weight percent of total solids in the milk (FIG. 3, in words): increased
